The values below come from PubChem BioAssay (NCI).

Among the test systems are CCRF-CEM leukemia; IGROV1 ovarian; KM12 colon; M14 melanoma; NCI-H23 lung; NCI-H460 lung; OVCAR-8 ovarian; RPMI-8226 leukemia; RXF 393 renal; SF-268 CNS.
Common to all, as to experiment: DTP human tumour cell line panel, 48 h

The term GI50 denotes the concentration that inhibits growth by half. Broadly, the TGI is the concentration giving total growth inhibition. Low readings indicate more potent growth arrest, high ones less potent growth arrest.

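1) Cells in 96-well plates. 2) Compound, 48 h, 5 concentrations. 3) Linear interpolation between surrounding doses. 4) Unreached endpoint = highest concentration. Here, GI50 denotes the concentration required for 50% inhibition of growth. TGI marks complete inhibition of growth.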 Where only a bound is given, the exact number is not on record here.

Consider `CC(=O)Nc1sc2c(c1-c1nc3ccccc3s1)CNC2`, for which the GI50 with CCRF-CEM leukemia was 3.74 µM; with IGROV1 ovarian, 2.07 µM; in the test with KM12 colon it was 3.38 µM; with M14 melanoma, 2.47 µM; in the test with NCI-H23 lung, 2.44 µM; with NCI-H460 lung, 1.94 µM. Also, the GI50 in the test on OVCAR-8 ovarian is 2.45 µM; with RPMI-8226 leukemia, 3.57 µM; in the test on RXF 393 renal, 2.25 µM; in the test on SF-268 CNS, 2.94 µM. For the same molecule, the TGI in the test with CCRF-CEM leukemia is 22.2 µM; with IGROV1 ovarian it was 11.9 µM; with KM12 colon, greater than 50 µM; in the test with M14 melanoma it was 9.71 µM; in the test with NCI-H23 lung it was 11.8 µM; with NCI-H460 lung it was 10.2 µM. The total growth inhibition concentration (TGI) in the test on OVCAR-8 ovarian was greater than 50 µM; in the test with RPMI-8226 leukemia it was 19.3 µM; in the test with RXF 393 renal, 7.96 µM; with SF-268 CNS, 15 µM.

Take `CC/C=C\C/C=C\C[C@H]1C/C=C2/C(=O)C=C[C@H]2C/C=C\CCC(=O)O1`: the GI50 was 2.89 µM in the test with CCRF-CEM leukemia; 3.71 µM with IGROV1 ovarian; 2.52 µM in the test on KM12 colon; 4.48 µM with M14 melanoma; 3.03 µM in the test with NCI-H23 lung; 3.1 µM with NCI-H460 lung. The GI50 with OVCAR-8 ovarian was 4.73 µM; in the test on RPMI-8226 leukemia it was 1.29 µM; in the test on RXF 393 renal, 2.28 µM; in the test with SF-268 CNS, 3.31 µM. Further, the total growth inhibition concentration (TGI) in the test on CCRF-CEM leukemia is 13 µM; with IGROV1 ovarian, 11.8 µM; with KM12 colon, 5.7 µM; with M14 melanoma, greater than 14.3 µM; in the test with NCI-H23 lung, 8.31 µM; in the test on NCI-H460 lung, 7.96 µM. The TGI in the test on OVCAR-8 ovarian was greater than 14.3 µM; in the test with RPMI-8226 leukemia it was 7.45 µM; with RXF 393 renal, 4.61 µM; in the test with SF-268 CNS, 10.4 µM.

With `COc1cc2c3c(c4c5ccccc5[nH]c4c2c(OC)c1OC)C(=O)N(CCN1CCCCC1)C3=O`, the GI50 is 0.855 µM with CCRF-CEM leukemia; 0.661 µM in the test on IGROV1 ovarian; 1.02 µM in the test with KM12 colon; 1.82 µM in the test on M14 melanoma; 1.12 µM in the test on NCI-H23 lung; 0.654 µM with NCI-H460 lung. In addition, the GI50 was 0.487 µM with OVCAR-8 ovarian, 1.06 µM in the test on RPMI-8226 leukemia, 0.502 µM in the test on RXF 393 renal and 1.15 µM in the test on SF-268 CNS. In addition, the TGI was greater than 100 µM with CCRF-CEM leukemia; 2.22 µM in the test with IGROV1 ovarian; 2.59 µM with KM12 colon; 4.25 µM in the test with M14 melanoma; 2.68 µM in the test on NCI-H23 lung; 2.1 µM in the test on NCI-H460 lung. Besides, the TGI came to 2.36 µM with OVCAR-8 ovarian, 4.17 µM in the test on RPMI-8226 leukemia, 1.89 µM with RXF 393 renal and 2.96 µM in the test on SF-268 CNS.

As for `COc1cc(C2C(C#N)=C(N)Oc3cc(O)ccc32)cc(OC)c1OC` (stereo not given), the GI50 in the test on CCRF-CEM leukemia was 0.37 µM; with IGROV1 ovarian, 2.19 µM; with KM12 colon it was 0.454 µM; in the test with M14 melanoma, 0.409 µM; in the test on NCI-H23 lung, 0.62 µM; in the test on NCI-H460 lung it was 0.382 µM. For the same molecule, the GI50 in the test on OVCAR-8 ovarian is 0.856 µM; in the test on RPMI-8226 leukemia, 0.65 µM; in the test with RXF 393 renal, 0.362 µM; with SF-268 CNS, 14.5 µM. The TGI in the test with CCRF-CEM leukemia was greater than 100 µM; in the test with IGROV1 ovarian, greater than 100 µM; with KM12 colon it was 63.3 µM; in the test on M14 melanoma it was greater than 100 µM; with NCI-H23 lung, greater than 100 µM; in the test on NCI-H460 lung, greater than 75.2 µM. Moreover, the TGI was greater than 100 µM with OVCAR-8 ovarian, greater than 89.6 µM with RPMI-8226 leukemia, 1.99 µM with RXF 393 renal and greater than 100 µM with SF-268 CNS.

Turning to `C=C1N(C)c2ccc(Cl)cc2C1(C)C`, the GI50 in the test on CCRF-CEM leukemia is 12.9 µM; in the test with IGROV1 ovarian, 8.35 µM; with KM12 colon, 3.95 µM; in the test with M14 melanoma it was 5.73 µM; with NCI-H23 lung it was 5.47 µM; in the test with NCI-H460 lung, 4.94 µM. In addition, the GI50 with OVCAR-8 ovarian is 9.67 µM; with RPMI-8226 leukemia, 2.56 µM; with RXF 393 renal, 6.41 µM; in the test with SF-268 CNS, 5.71 µM. Besides, the total growth inhibition concentration (TGI) in the test on CCRF-CEM leukemia is 69.2 µM; in the test with IGROV1 ovarian, 65.4 µM; with KM12 colon, 13.7 µM; in the test with M14 melanoma, 24.5 µM; with NCI-H23 lung, greater than 100 µM; with NCI-H460 lung it was 36.1 µM. In addition, the TGI with OVCAR-8 ovarian was greater than 100 µM; in the test on RPMI-8226 leukemia, 10.4 µM; in the test on RXF 393 renal it was 35.8 µM; in the test with SF-268 CNS, greater than 100 µM.

Consider `O=S(=O)(NCCCNc1cc(-c2cn(-c3ccccc3)nc2-c2cccc(O)c2)ccn1)c1ccc(Cl)cc1`, for which the GI50 is 2.43 µM with CCRF-CEM leukemia; 2.96 µM in the test with IGROV1 ovarian; 1.95 µM in the test with KM12 colon; 1.6 µM in the test with M14 melanoma; 1.64 µM in the test with NCI-H23 lung; 1.68 µM in the test on NCI-H460 lung. Also, the GI50 in the test with OVCAR-8 ovarian was 2.11 µM; in the test with RPMI-8226 leukemia, 1.49 µM; with RXF 393 renal it was 0.846 µM; in the test with SF-268 CNS, 1.55 µM. The TGI in the test with CCRF-CEM leukemia amounted to 7.85 µM; in the test on IGROV1 ovarian, 13.2 µM; in the test with KM12 colon it was 4.93 µM; in the test on M14 melanoma it was 3.2 µM; in the test on NCI-H23 lung it was 4.98 µM; in the test on NCI-H460 lung, 3.32 µM. Moreover, the TGI was 6.06 µM in the test on OVCAR-8 ovarian, 4.68 µM with RPMI-8226 leukemia, 2.8 µM with RXF 393 renal and 5.18 µM with SF-268 CNS.

For the molecule `Nc1c(C(=O)Nc2ccccc2)sc2nc3c(cc12)CCCC3`, the GI50 with CCRF-CEM leukemia is 0.374 µM; in the test with IGROV1 ovarian it was 2.64 µM; in the test with KM12 colon, 0.485 µM; in the test on M14 melanoma, 0.487 µM; with NCI-H23 lung, 1.08 µM; in the test with NCI-H460 lung, 0.458 µM. Also, the GI50 is 1.8 µM with OVCAR-8 ovarian, 0.681 µM in the test with RPMI-8226 leukemia, 0.744 µM in the test with RXF 393 renal and 2.2 µM with SF-268 CNS. In addition, the TGI in the test with CCRF-CEM leukemia was greater than 46.5 µM; in the test on IGROV1 ovarian it was greater than 100 µM; in the test with KM12 colon it was greater than 100 µM; in the test with M14 melanoma it was greater than 100 µM; with NCI-H23 lung it was greater than 100 µM; with NCI-H460 lung it was greater than 75.9 µM. Further, the TGI in the test on OVCAR-8 ovarian was greater than 100 µM; with RPMI-8226 leukemia, 11.5 µM; with RXF 393 renal, 8.17 µM; in the test with SF-268 CNS, greater than 100 µM.

`C=C1C(=O)OC2/C=C(\C)C3OC3/C=C(/C(=O)OC)C(OC(C)=O)C(OC(=O)C(C)(O)C(C)OC(C)=O)C12` (stereo not given): the TGI with CCRF-CEM leukemia stood at 3.04 µM; in the test with IGROV1 ovarian, 5.71 µM; in the test on KM12 colon, 6.36 µM; in the test on M14 melanoma, 8.05 µM; in the test with NCI-H23 lung it was 11.2 µM; in the test on NCI-H460 lung, 13.3 µM. Moreover, the TGI turned out to be 6.92 µM with OVCAR-8 ovarian, 7.9 µM in the test with RPMI-8226 leukemia, 1.35 µM in the test with RXF 393 renal and 34.1 µM with SF-268 CNS.

Consider `COc1ccc(CC2C3=C(CCCC3)CCN2C)cc1` (stereo not given), for which the TGI in the test on CCRF-CEM leukemia, in the test with IGROV1 ovarian, in the test with KM12 colon, in the test with M14 melanoma, with NCI-H23 lung and in the test on NCI-H460 lung was greater than 100 µM throughout. The TGI with OVCAR-8 ovarian, in the test on RPMI-8226 leukemia, with RXF 393 renal and in the test on SF-268 CNS was greater than 100 µM each time.

Regarding `CNC1C(OC2C(OC3C(O)C(O)C(O)C(O)C3O)OC(C)C2(O)CO)OC(CO)C(O)C1O` (stereo not given) (tested in a mixture with another compound), the TGI with CCRF-CEM leukemia, with IGROV1 ovarian, with KM12 colon, in the test with M14 melanoma, in the test with NCI-H23 lung and in the test on NCI-H460 lung was greater than 100 µM throughout. Further, the TGI in the test with OVCAR-8 ovarian, with RPMI-8226 leukemia, with RXF 393 renal and in the test with SF-268 CNS was greater than 100 µM each time.

`COc1ccc(/C(C)=N/NC(N)=S)c(OC)c1`: the TGI with CCRF-CEM leukemia, with IGROV1 ovarian, in the test with KM12 colon, in the test on M14 melanoma, with NCI-H23 lung and in the test on NCI-H460 lung was greater than 100 µM in each case. Further, the TGI in the test on OVCAR-8 ovarian, with RPMI-8226 leukemia, in the test on RXF 393 renal and in the test on SF-268 CNS was greater than 100 µM each time.

As to `Cc1ccc(S(=O)(=O)n2cc(-c3nnnn3-c3ccc(Cl)cc3)c(=O)c3ccccc32)cc1`, the GI50 in the test with CCRF-CEM leukemia was 43.4 µM; in the test with IGROV1 ovarian, greater than 100 µM; in the test on KM12 colon, greater than 100 µM; in the test on M14 melanoma, 49.5 µM; in the test with NCI-H23 lung, greater than 100 µM; with NCI-H460 lung, 81.9 µM. Besides, the GI50 with OVCAR-8 ovarian was greater than 100 µM; in the test on RPMI-8226 leukemia, 21.9 µM; in the test with RXF 393 renal it was 29.6 µM; in the test with SF-268 CNS, greater than 100 µM. The TGI in the test on CCRF-CEM leukemia, in the test with IGROV1 ovarian, with KM12 colon, in the test on M14 melanoma, in the test with NCI-H23 lung and with NCI-H460 lung was greater than 100 µM throughout. Further, the TGI is greater than 100 µM in the test on OVCAR-8 ovarian, 59 µM in the test on RPMI-8226 leukemia, greater than 100 µM in the test on RXF 393 renal and greater than 100 µM with SF-268 CNS.
